pIC50: −log10 of the molar value.
Legend:
K562 [1] = test: Antiproliferative activity against human K562 cells assessed as reduction in cell growth after 72 hrs by MTT assay; type: functional, cell-based; conditions: K562, 72 h
SW480 = test: Antiproliferative activity against human SW480 cells assessed as reduction in cell growth after 72 hrs by MTT assay; type: functional, cell-based; conditions: SW480, 72 h
MDA-MB-231 = test: Antiproliferative activity against human MDA-MB-231 cells assessed as reduction in cell growth after 72 hrs by MTT assay; type: functional, cell-based; conditions: MDA-MB-231, 72 h
SMMC-7721 = test: Antiproliferative activity against human SMMC-7721 cells assessed as reduction in cell growth after 72 hrs by MTT assay; type: functional, cell-based; conditions: SMMC-7721, 72 h
[2] = Selectivity index, ratio of IC50 for human L02 cells to IC50 for human SMMC-7721 cells; type: toxicity; conditions: L02 cells versus SMMC-7721 cells, read-out: Ratio IC50
[3] = Cytotoxicity against human L02 cells incubated for 72 hrs by MTT assay; type: toxicity, cell-based
K562 [4] = test: Potency index, ratio of oridonin IC50 to compound IC50 for antiproliferative activity against human K562 cells after 72 hrs by MTT assay; type: functional

| pIC50 (K562 [1]) | pIC50 (SW480) | pIC50 (MDA-MB-231) | pIC50 (SMMC-7721) | SMILES | selectivity ratio [2] | IC50 at 72 h [3] [nM] | Ratio IC50 (K562 [4]) |
| --- | --- | --- | --- | --- | --- | --- | --- |
| 6.12 | 5.95 | 6.10 | 6.04 | C=C1C(=O)[C@@]23C(=O)OC[C@]4(C=CCC(C)(C)[C@H]4C=O)[C@@H]2CC[C@@H]1[C@H]3OC(=O)/C=C/c1ccnc(F)c1 | – | – | – |
| 5.74 | 5.64 | 5.53 | 5.55 | C=C1C(=O)[C@@]23C(=O)OC[C@]4(C=CCC(C)(C)[C@H]4C=O)[C@@H]2CC[C@@H]1[C@H]3OC(=O)/C=C/c1ccco1 | – | – | – |
| 5.90 | 5.56 | 5.54 | 5.43 | C=C1C(=O)[C@@]23C(=O)OC[C@]4(C=CCC(C)(C)[C@H]4C=O)[C@@H]2CC[C@@H]1[C@H]3O | – | – | – |
| 5.82 | 5.45 | 5.49 | 5.50 | C=C1C(=O)[C@@]23C(=O)OC[C@]4(C=CCC(C)(C)[C@H]4C=O)[C@@H]2CC[C@@H]1[C@H]3OC(=O)/C=C/c1ccccc1 | – | – | – |
| 5.37 | 4.98 | – | 4.84 | C=C1C(=O)[C@]23[C@H](O)[C@H]1CC[C@H]2[C@@]12CO[C@]3(O)[C@@H](O)[C@@H]1C(C)(C)CC[C@@H]2O [ORIDONIN] | 1.74 | 25000 | – |
| 6.01 | 5.77 | 5.83 | 5.99 | C=C1C(=O)[C@@]23C(=O)OC[C@]4(C=CCC(C)(C)[C@H]4C=O)[C@@H]2CC[C@@H]1[C@H]3OC(=O)/C=C/c1ccnc(C)c1 | – | – | – |
| 5.84 | 5.61 | 5.40 | 5.52 | C=C1C(=O)[C@@]23C(=O)OC[C@]4(C=CCC(C)(C)[C@H]4C=O)[C@@H]2CC[C@@H]1[C@H]3OC(=O)/C=C/c1ccc[nH]1 | – | – | – |
| 5.61 | 5.49 | 5.42 | 5.42 | C=C1C(=O)[C@@]23C(=O)OC[C@]4(C=CCC(C)(C)[C@H]4C=O)[C@@H]2CC[C@@H]1[C@H]3OC(=O)/C=C/c1ccsc1 | – | – | – |
| 5.73 | 5.46 | 5.51 | 5.50 | C=C1C(=O)[C@@]23C(=O)OC[C@]4(C=CCC(C)(C)[C@H]4C=O)[C@@H]2CC[C@@H]1[C@H]3OC(=O)/C=C/c1ccc2c(c1)OCO2 | – | – | – |
| 5.72 | 5.51 | 5.61 | 5.66 | C=C1C(=O)[C@@]23C(=O)OC[C@]4(C=CCC(C)(C)[C@H]4C=O)[C@@H]2CC[C@@H]1[C@H]3OC(=O)/C=C/c1ccc2ccccc2c1 | – | – | – |
| 5.91 | 5.47 | 5.29 | 5.52 | C=C1C(=O)[C@@]23C(=O)OC[C@]4(C=CCC(C)(C)[C@H]4C=O)[C@@H]2CC[C@@H]1[C@H]3OC(=O)/C=C/c1ccc2ccccc2n1 | – | – | – |
| 6.17 | 6.01 | 6.06 | 6.00 | C=C1C(=O)[C@@]23C(=O)O[C@H]4CCC(C)(C)[C@H]5C(=O)OC[C@]45[C@H]2CC[C@@H]1[C@H]3OC(=O)/C=C/c1ccncc1F | – | – | – |
| 6.17 | 6.03 | 6.08 | 6.02 | C=C1C(=O)[C@@]23C(=O)O[C@H]4CCC(C)(C)[C@H]5C(=O)OC[C@]45[C@H]2CC[C@@H]1[C@H]3OC(=O)/C=C/c1ccnc(OC)c1 | – | – | – |
| 6.19 | 6.11 | 6.12 | 6.09 | C=C1C(=O)[C@@]23C(=O)O[C@H]4CCC(C)(C)[C@H]5C(=O)OC[C@]45[C@H]2CC[C@@H]1[C@H]3OC(=O)/C=C/c1ccnc(F)c1 | – | – | – |
| 6.12 | 6.01 | 5.65 | 5.70 | C=C1C(=O)[C@@]23C(=O)OC[C@]4(C=CCC(C)(C)[C@H]4C=O)[C@@H]2CC[C@@H]1[C@H]3OC(=O)/C=C/c1cncnc1 | – | – | – |
| 6.27 | 6.14 | 6.08 | 6.21 | C=C1C(=O)[C@@]23C(=O)OC[C@]4(C=CCC(C)(C)[C@H]4C=O)[C@@H]2CC[C@@H]1[C@H]3OC(=O)/C=C/c1ccncc1F | – | – | – |
| 6.38 | 6.24 | 6.06 | 6.10 | C=C1C(=O)[C@@]23C(=O)OC[C@]4(C=CCC(C)(C)[C@H]4C=O)[C@@H]2CC[C@@H]1[C@H]3OC(=O)/C=C/c1ccncc1OC | – | – | – |
| 6.03 | 5.99 | 5.66 | 5.70 | C=C1C(=O)[C@@]23C(=O)O[C@H]4CCC(C)(C)[C@H]5C(=O)OC[C@]45[C@H]2CC[C@@H]1[C@H]3OC(=O)/C=C/c1cncnc1 | – | – | – |
| 6.25 | 6.18 | 5.90 | 6.10 | C=C1C(=O)[C@@]23C(=O)OC[C@]4(C=CCC(C)(C)[C@H]4C=O)[C@@H]2CC[C@@H]1[C@H]3OC(=O)/C=C/c1ccccn1 | – | – | – |
| 6.23 | 6.09 | 6.12 | 5.77 | C=C1C(=O)[C@@]23C(=O)OC[C@]4(C=CCC(C)(C)[C@H]4C=O)[C@@H]2CC[C@@H]1[C@H]3OC(=O)/C=C/c1ccncc1 | – | – | 7 |
| 5.26 | 5.18 | 5.12 | 5.25 | C=C1C(=O)[C@@]23C(=O)O[C@H]4CCC(C)(C)[C@H]5C(=O)OC[C@]45[C@H]2CC[C@@H]1[C@H]3O | – | – | – |
| 5.73 | 5.42 | 5.29 | 5.42 | C=C1C(=O)[C@@]23C(=O)OC[C@]4(C=CCC(C)(C)[C@H]4C=O)[C@@H]2CC[C@@H]1[C@H]3OC(=O)/C=C/C | – | – | – |
| 6.26 | 6.15 | 6.09 | 6.08 | C=C1C(=O)[C@@]23C(=O)O[C@H]4CCC(C)(C)[C@H]5C(=O)OC[C@]45[C@H]2CC[C@@H]1[C@H]3OC(=O)/C=C/c1ccncc1 | – | – | 8 |
| 6.04 | 6.12 | 5.97 | 5.97 | C=C1C(=O)[C@@]23C(=O)O[C@H]4CCC(C)(C)[C@H]5C(=O)OC[C@]45[C@H]2CC[C@@H]1[C@H]3OC(=O)/C=C/c1ccncc1C | – | – | – |
